Reference: patent US20150025080A1, “SOLID DISPERSIONS OF SITAGLIPTIN AND PROCESSES FOR THEIR PREPARATION” (RANBAXY LABORATORIES LIMITED, priority 2011, published 2015)

Experiment: Storage stability in humidity chamber at 50% RH and 25° C., evaluated by XRPD
Assay type: physicochemical
Conditions: about 50% relative humidity
Experimental: The X-ray powder diffractograms (XRPD) of the samples were determined by using Instrument: PANalytical; Mode: Expert PRO; Detector: Xcelerator; ScanRange: 3-40; Step size: 0.02; Range: 3-40° 2 theta; CuKα radiation at 45 kV.
0.52 g of the product obtained as per Example 2 was stored in double sealed polybags in a humidity chamber maintained at 50% RH and 25° C. for 4 days to evaluate the stability. The XRPD pattern of the compound stored at 50% RH and 25° C. for 4 days is depicted in FIG. 10.
0.54 g of the product obtained as per Example 2 was stored in double sealed polybags in a humidity chamber maintained at 50% RH and 25° C. for 10 days to evaluate the stability. The XRPD pattern of the compound stored at 50% RH and 25° C. for 10 days is depicted in FIG. 11.
0.54 g of the product obtained as per Example 5 was stored in double-sealed polybags in a humidity chamber maintained at 50% RH and 25° C. for 4 days to evaluate the stability. The XRPD pattern of the product stored at 50% RH and 25° C. for 4 days is depicted in FIG. 13.
0.53 g of the product obtained as per Example 5 was stored in double-sealed polybags in a humidity chamber maintained at 50% RH and 25° C. for 10 days to evaluate the stability. The XRPD pattern of the product stored at 50% RH and 25° C. for 10 days is depicted in FIG. 14. […]

With `N[C@@H](CC(=O)N1CCn2c(nnc2C(F)(F)F)C1)Cc1cc(F)c(F)cc1F` [sitagliptin dihydrogen phosphate] as the compound, how does the “time period in which the amorphous form tends to undergo crystallization” value read?
Its value is “about 4 days”.
